Assay results reported in PubChem BioAssay AID2060906 (Molecular Pharmacology Branch, DTP, NCI, 2025).

Tested on: 485176-168-R4-J1-PDC complex spheroid growth
Assay: Anticancer human tumor 485176-168-R4-J1-PDC patient-derived pancreatic adenocarcinoma cell line growth inhibition [RAS]
Details: for IC50: curve of first compound; for viability, T/C: stronger effect = lower value
Procedure, shortened: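 Tumour cells grown as complex spheroids with HUVEC endothelial cells and mesenchymal stem cells, treated with RAS pathway inhibitor combinations. Each agent spans half-log steps from near clinical Cmax, or 10 microM where Cmax is unknown.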
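Further: spheroids exposed to compounds for seven days before readout.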
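Wherever viability, T/C is given: luminescence viability expressed relative to DMSO vehicle wells set as 100%.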

Q: Which results are given for `CC1(C)CCC(Nc2ncc(C(F)(F)F)c(-c3c[nH]c4c(P(C)(C)=O)c(C#N)ccc34)n2)CN1` (centres undefined) + C#Cc1c(F)ccc2cc(O)cc(-c3ncc4c(N5CC6CCC(C5)N6)nc(OCC56CCCN5CC(F)C6)nc4c3F)c12?
A: IC50 (second compound 0.0316 µM): > 300 nM; IC50 (second compound 0.1 µM): > 300 nM; IC50 (second compound 0.316 µM): > 300 nM; IC50 (second compound 1 µM): 262 nM; IC50 (second compound 3.16 µM): > 300 nM; IC50 (second compound 10 µM): 114 nM; viability, T/C (second compound 0.0316 µM, first compound 0.000949 µM): 106%; viability, T/C (second compound 0.0316 µM, first compound 0.003 µM): 98.2%; viability, T/C (second compound 0.0316 µM, first compound 0.00949 µM): 83.8%; viability, T/C (second compound 0.0316 µM, first compound 0.03 µM): 59.8%; viability, T/C (second compound 0.0316 µM, first compound 0.0949 µM): 61.8%; viability, T/C (second compound 0.0316 µM, first compound 0.3 µM): 56.2%; viability, T/C (second compound 0.1 µM, first compound 0.000949 µM): 98.5%; viability, T/C (second compound 0.1 µM, first compound 0.003 µM): 114%; viability, T/C (second compound 0.1 µM, first compound 0.00949 µM): 79.1%; viability, T/C (second compound 0.1 µM, first compound 0.03 µM): 59.7%; viability, T/C (second compound 0.1 µM, first compound 0.0949 µM): 56.9%; viability, T/C (second compound 0.1 µM, first compound 0.3 µM): 50%; viability, T/C (second compound 0.316 µM, first compound 0.000949 µM): 106%; viability, T/C (second compound 0.316 µM, first compound 0.003 µM): 121%; viability, T/C (second compound 0.316 µM, first compound 0.00949 µM): 84.5%; viability, T/C (second compound 0.316 µM, first compound 0.03 µM): 55.8%; viability, T/C (second compound 0.316 µM, first compound 0.0949 µM): 53.1%; viability, T/C (second compound 0.316 µM, first compound 0.3 µM): 60.5%; viability, T/C (second compound 1 µM, first compound 0.000949 µM): 118%; viability, T/C (second compound 1 µM, first compound 0.003 µM): 96%; viability, T/C (second compound 1 µM, first compound 0.00949 µM): 80.5%; viability, T/C (second compound 1 µM, first compound 0.03 µM): 68.1%; viability, T/C (second compound 1 µM, first compound 0.0949 µM): 53.5%; viability, T/C (second compound 1 µM, first compound 0.3 µM): 50.4%; viability, T/C (second compound 3.16 µM, first compound 0.000949 µM): 107%; viability, T/C (second compound 3.16 µM, first compound 0.003 µM): 97.9%; viability, T/C (second compound 3.16 µM, first compound 0.00949 µM): 84.5%; viability, T/C (second compound 3.16 µM, first compound 0.03 µM): 63.8%; viability, T/C (second compound 3.16 µM, first compound 0.0949 µM): 58.3%; viability, T/C (second compound 3.16 µM, first compound 0.3 µM): 53%; viability, T/C (second compound 10 µM, first compound 0.000949 µM): 99.3%; viability, T/C (second compound 10 µM, first compound 0.003 µM): 89.3%; viability, T/C (second compound 10 µM, first compound 0.00949 µM): 81.2%; viability, T/C (second compound 10 µM, first compound 0.03 µM): 68.7%; viability, T/C (second compound 10 µM, first compound 0.0949 µM): 46.2%; viability, T/C (second compound 10 µM, first compound 0.3 µM): 46.4%

Q: With `C[C@@H](NC(=O)c1ncnc(N)c1Cl)c1ncc(C(=O)Nc2cc(C(F)(F)F)c(Cl)cn2)s1` + CCn1c(-c2cccnc2C(C)OC)c2c3cc(ccc31)N1CCOC(CC(NC(=O)C(C(C)C)N(C)C(=O)C3(F)CCN(C(=O)C#CC(C)(C)N(C)C)CC3)C(=O)N3CCCC(N3)C(=O)OCC(C)(C)C2)C1 as the molecule, how does the IC50 (second compound 0.000949 µM) read?
A: > 10000 nM

Q: And the IC50 (second compound 0.003 µM)?
A: > 10000 nM

Q: And the IC50 (second compound 0.00949 µM)?
A: > 10000 nM

Q: And the IC50 (second compound 0.03 µM)?
A: > 10000 nM

Q: And the IC50 (second compound 0.0949 µM)?
A: > 10000 nM

Q: And the IC50 (second compound 0.3 µM)?
A: 9480 nM

Q: What about the viability, T/C (second compound 0.000949 µM, first compound 0.0316 µM) of the same molecule?
A: 101%

Q: And the viability, T/C (second compound 0.000949 µM, first compound 0.1 µM)?
A: 91.7%

Q: And the viability, T/C (second compound 0.000949 µM, first compound 0.316 µM)?
A: 100%

Q: And the viability, T/C (second compound 0.000949 µM, first compound 1 µM)?
A: 85.9%

Q: What about the viability, T/C (second compound 0.000949 µM, first compound 3.16 µM) of the same molecule?
A: 72.2%

Q: What about the viability, T/C (second compound 0.000949 µM, first compound 10 µM) of the same molecule?
A: 54.5%

Q: What about the viability, T/C (second compound 0.003 µM, first compound 0.0316 µM) of the same molecule?
A: 88.6%

Q: What about the viability, T/C (second compound 0.003 µM, first compound 0.1 µM) of the same molecule?
A: 89.4%

Q: And the viability, T/C (second compound 0.003 µM, first compound 0.316 µM)?
A: 86.2%

Q: What about the viability, T/C (second compound 0.003 µM, first compound 1 µM) of the same molecule?
A: 70.6%

Q: And the viability, T/C (second compound 0.003 µM, first compound 3.16 µM)?
A: 71%

Q: And the viability, T/C (second compound 0.003 µM, first compound 10 µM)?
A: 59.6%

Q: And the viability, T/C (second compound 0.00949 µM, first compound 0.0316 µM)?
A: 87.1%

Q: And the viability, T/C (second compound 0.00949 µM, first compound 0.1 µM)?
A: 98.5%

Q: And the viability, T/C (second compound 0.00949 µM, first compound 0.316 µM)?
A: 83.7%

Q: And the viability, T/C (second compound 0.00949 µM, first compound 1 µM)?
A: 82.4%

Q: What about the viability, T/C (second compound 0.00949 µM, first compound 3.16 µM) of the same molecule?
A: 91%

Q: What about the viability, T/C (second compound 0.00949 µM, first compound 10 µM) of the same molecule?
A: 53%

Q: What about the viability, T/C (second compound 0.03 µM, first compound 0.0316 µM) of the same molecule?
A: 81.3%

Q: And the viability, T/C (second compound 0.03 µM, first compound 0.1 µM)?
A: 85.6%

Q: What about the viability, T/C (second compound 0.03 µM, first compound 0.316 µM) of the same molecule?
A: 102%

Q: And the viability, T/C (second compound 0.03 µM, first compound 1 µM)?
A: 78.3%

Q: And the viability, T/C (second compound 0.03 µM, first compound 3.16 µM)?
A: 75.6%

Q: And the viability, T/C (second compound 0.03 µM, first compound 10 µM)?
A: 79.5%

Q: What about the viability, T/C (second compound 0.0949 µM, first compound 0.0316 µM) of the same molecule?
A: 89.9%

Q: What about the viability, T/C (second compound 0.0949 µM, first compound 0.1 µM) of the same molecule?
A: 90.3%

Q: What about the viability, T/C (second compound 0.0949 µM, first compound 0.316 µM) of the same molecule?
A: 78.5%

Q: What about the viability, T/C (second compound 0.0949 µM, first compound 1 µM) of the same molecule?
A: 70.7%

Q: And the viability, T/C (second compound 0.0949 µM, first compound 3.16 µM)?
A: 74%

Q: And the viability, T/C (second compound 0.0949 µM, first compound 10 µM)?
A: 58.3%

Q: And the viability, T/C (second compound 0.3 µM, first compound 0.0316 µM)?
A: 75.2%

Q: And the viability, T/C (second compound 0.3 µM, first compound 0.1 µM)?
A: 76.4%

Q: What about the viability, T/C (second compound 0.3 µM, first compound 0.316 µM) of the same molecule?
A: 65.7%

Q: What about the viability, T/C (second compound 0.3 µM, first compound 1 µM) of the same molecule?
A: 72.4%

Q: What about the viability, T/C (second compound 0.3 µM, first compound 3.16 µM) of the same molecule?
A: 59%

Q: And the viability, T/C (second compound 0.3 µM, first compound 10 µM)?
A: 49.7%
